Results published in PubChem BioAssay (NCI).
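Dose response: 5 concentrations. Exposure: 48 h. Format: 96-well plates. Endpoint: linear interpolation; highest concentration if not reached. TGI: concentration producing complete growth inhibition.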

System: BT-549 breast
Experiment: NCI tumour cell line growth inhibition, 48 h

**Q.** Which TGI does the source give for NC(=O)c1cc2ccc(O)cc2oc1=Nc1ccccc1 here?
**A.** Its TGI is > 100 µM.

**Q.** For Cn1c2ccc3cc2c(=S)c2cc(ccc21)OCCOCCOCCOCCOCCO3, which TGI is on record?
**A.** Its TGI is > 10 µM.

**Q.** With Cc1cc2c(cc1Cl)S(=O)(=O)OC(c1ccc([N+](=O)[O-])cc1)=N2 as the compound, how does the TGI read?
**A.** The TGI was > 100 µM.

System: CAKI-1 renal
Experiment: NCI tumour cell line growth inhibition, 48 h

**Q.** How did the TGI turn out when NC(=O)c1cc2ccc(O)cc2oc1=Nc1ccccc1 was run?
**A.** The TGI was > 100 µM.

**Q.** For Cn1c2ccc3cc2c(=S)c2cc(ccc21)OCCOCCOCCOCCOCCO3, which TGI is on record?
**A.** The TGI was > 10 µM.

**Q.** For Cc1cc2c(cc1Cl)S(=O)(=O)OC(c1ccc([N+](=O)[O-])cc1)=N2, which TGI is on record?
**A.** The TGI was > 100 µM.

System: HCC-2998 colon
Experiment: NCI tumour cell line growth inhibition, 48 h

**Q.** How did the TGI turn out when NC(=O)c1cc2ccc(O)cc2oc1=Nc1ccccc1 was run?
**A.** The TGI was 78.8 µM.

**Q.** With Cn1c2ccc3cc2c(=S)c2cc(ccc21)OCCOCCOCCOCCOCCO3 as the compound, how does the TGI read?
**A.** Its TGI is > 10 µM.

**Q.** Cc1cc2c(cc1Cl)S(=O)(=O)OC(c1ccc([N+](=O)[O-])cc1)=N2 was tested. Which TGI did it give?
**A.** Its TGI is > 100 µM.

System: HOP-62 NSCLC
Experiment: NCI tumour cell line growth inhibition, 48 h

**Q.** With NC(=O)c1cc2ccc(O)cc2oc1=Nc1ccccc1 as the compound, how does the TGI read?
**A.** Its TGI is > 100 µM.

**Q.** For Cn1c2ccc3cc2c(=S)c2cc(ccc21)OCCOCCOCCOCCOCCO3, which TGI is on record?
**A.** Its TGI is > 10 µM.

**Q.** How did the TGI turn out when Cc1cc2c(cc1Cl)S(=O)(=O)OC(c1ccc([N+](=O)[O-])cc1)=N2 was run?
**A.** The TGI was > 100 µM.

System: HOP-92 NSCLC
Experiment: NCI tumour cell line growth inhibition, 48 h

**Q.** NC(=O)c1cc2ccc(O)cc2oc1=Nc1ccccc1 was tested. Which TGI did it give?
**A.** Its TGI is > 100 µM.

**Q.** For Cn1c2ccc3cc2c(=S)c2cc(ccc21)OCCOCCOCCOCCOCCO3, which TGI is on record?
**A.** The TGI was > 10 µM.

**Q.** Which TGI does the source give for Cc1cc2c(cc1Cl)S(=O)(=O)OC(c1ccc([N+](=O)[O-])cc1)=N2 here?
**A.** Its TGI is > 100 µM.

System: HT29 colon
Experiment: NCI tumour cell line growth inhibition, 48 h

**Q.** With NC(=O)c1cc2ccc(O)cc2oc1=Nc1ccccc1 as the compound, how does the TGI read?
**A.** Its TGI is > 100 µM.

**Q.** How did the TGI turn out when Cn1c2ccc3cc2c(=S)c2cc(ccc21)OCCOCCOCCOCCOCCO3 was run?
**A.** Its TGI is > 10 µM.

**Q.** With Cc1cc2c(cc1Cl)S(=O)(=O)OC(c1ccc([N+](=O)[O-])cc1)=N2 as the compound, how does the TGI read?
**A.** Its TGI is > 100 µM.

System: MOLT-4 leukemia
Experiment: NCI tumour cell line growth inhibition, 48 h

**Q.** NC(=O)c1cc2ccc(O)cc2oc1=Nc1ccccc1 was tested. Which TGI did it give?
**A.** Its TGI is 88.8 µM.

**Q.** With Cn1c2ccc3cc2c(=S)c2cc(ccc21)OCCOCCOCCOCCOCCO3 as the compound, how does the TGI read?
**A.** The TGI was > 10 µM.

**Q.** How did the TGI turn out when Cc1cc2c(cc1Cl)S(=O)(=O)OC(c1ccc([N+](=O)[O-])cc1)=N2 was run?
**A.** The TGI was > 100 µM.

System: NCI-H522 lung
Experiment: NCI tumour cell line growth inhibition, 48 h

**Q.** With NC(=O)c1cc2ccc(O)cc2oc1=Nc1ccccc1 as the compound, how does the TGI read?
**A.** Its TGI is 77.9 µM.

**Q.** For Cn1c2ccc3cc2c(=S)c2cc(ccc21)OCCOCCOCCOCCOCCO3, which TGI is on record?
**A.** Its TGI is > 10 µM.

**Q.** Which TGI does the source give for Cc1cc2c(cc1Cl)S(=O)(=O)OC(c1ccc([N+](=O)[O-])cc1)=N2 here?
**A.** Its TGI is > 100 µM.

System: OVCAR-3 ovarian
Experiment: NCI tumour cell line growth inhibition, 48 h

**Q.** With NC(=O)c1cc2ccc(O)cc2oc1=Nc1ccccc1 as the compound, how does the TGI read?
**A.** The TGI was > 100 µM.

**Q.** With Cn1c2ccc3cc2c(=S)c2cc(ccc21)OCCOCCOCCOCCOCCO3 as the compound, how does the TGI read?
**A.** The TGI was > 10 µM.

**Q.** With Cc1cc2c(cc1Cl)S(=O)(=O)OC(c1ccc([N+](=O)[O-])cc1)=N2 as the compound, how does the TGI read?
**A.** The TGI was > 100 µM.

System: SF-295 CNS
Experiment: NCI tumour cell line growth inhibition, 48 h

**Q.** How did the TGI turn out when NC(=O)c1cc2ccc(O)cc2oc1=Nc1ccccc1 was run?
**A.** The TGI was > 100 µM.

**Q.** How did the TGI turn out when Cn1c2ccc3cc2c(=S)c2cc(ccc21)OCCOCCOCCOCCOCCO3 was run?
**A.** The TGI was > 10 µM.

**Q.** With Cc1cc2c(cc1Cl)S(=O)(=O)OC(c1ccc([N+](=O)[O-])cc1)=N2 as the compound, how does the TGI read?
**A.** The TGI was > 100 µM.

System: SK-MEL-28 melanoma
Experiment: NCI tumour cell line growth inhibition, 48 h

**Q.** How did the TGI turn out when NC(=O)c1cc2ccc(O)cc2oc1=Nc1ccccc1 was run?
**A.** Its TGI is > 100 µM.

**Q.** Cn1c2ccc3cc2c(=S)c2cc(ccc21)OCCOCCOCCOCCOCCO3 was tested. Which TGI did it give?
**A.** Its TGI is > 10 µM.

**Q.** Cc1cc2c(cc1Cl)S(=O)(=O)OC(c1ccc([N+](=O)[O-])cc1)=N2 was tested. Which TGI did it give?
**A.** Its TGI is > 100 µM.

System: SK-MEL-5 melanoma
Experiment: NCI tumour cell line growth inhibition, 48 h

**Q.** Which TGI does the source give for NC(=O)c1cc2ccc(O)cc2oc1=Nc1ccccc1 here?
**A.** The TGI was 69 µM.

**Q.** With Cn1c2ccc3cc2c(=S)c2cc(ccc21)OCCOCCOCCOCCOCCO3 as the compound, how does the TGI read?
**A.** Its TGI is > 10 µM.

**Q.** How did the TGI turn out when Cc1cc2c(cc1Cl)S(=O)(=O)OC(c1ccc([N+](=O)[O-])cc1)=N2 was run?
**A.** The TGI was > 100 µM.

System: SNB-19 CNS
Experiment: NCI tumour cell line growth inhibition, 48 h

**Q.** Which TGI does the source give for NC(=O)c1cc2ccc(O)cc2oc1=Nc1ccccc1 here?
**A.** Its TGI is > 100 µM.

**Q.** Cn1c2ccc3cc2c(=S)c2cc(ccc21)OCCOCCOCCOCCOCCO3 was tested. Which TGI did it give?
**A.** Its TGI is > 10 µM.

**Q.** How did the TGI turn out when Cc1cc2c(cc1Cl)S(=O)(=O)OC(c1ccc([N+](=O)[O-])cc1)=N2 was run?
**A.** Its TGI is > 100 µM.

System: SNB-75 CNS
Experiment: NCI tumour cell line growth inhibition, 48 h

**Q.** For NC(=O)c1cc2ccc(O)cc2oc1=Nc1ccccc1, which TGI is on record?
**A.** Its TGI is 68.3 µM.

**Q.** Which TGI does the source give for Cn1c2ccc3cc2c(=S)c2cc(ccc21)OCCOCCOCCOCCOCCO3 here?
**A.** The TGI was > 10 µM.

**Q.** How did the TGI turn out when Cc1cc2c(cc1Cl)S(=O)(=O)OC(c1ccc([N+](=O)[O-])cc1)=N2 was run?
**A.** Its TGI is > 100 µM.

System: SW-620 colon
Experiment: NCI tumour cell line growth inhibition, 48 h

**Q.** With NC(=O)c1cc2ccc(O)cc2oc1=Nc1ccccc1 as the compound, how does the TGI read?
**A.** The TGI was > 100 µM.

**Q.** For Cn1c2ccc3cc2c(=S)c2cc(ccc21)OCCOCCOCCOCCOCCO3, which TGI is on record?
**A.** The TGI was > 10 µM.

**Q.** Cc1cc2c(cc1Cl)S(=O)(=O)OC(c1ccc([N+](=O)[O-])cc1)=N2 was tested. Which TGI did it give?
**A.** The TGI was > 100 µM.

System: UACC-62 melanoma
Experiment: NCI tumour cell line growth inhibition, 48 h

**Q.** NC(=O)c1cc2ccc(O)cc2oc1=Nc1ccccc1 was tested. Which TGI did it give?
**A.** Its TGI is > 100 µM.

**Q.** For Cn1c2ccc3cc2c(=S)c2cc(ccc21)OCCOCCOCCOCCOCCO3, which TGI is on record?
**A.** The TGI was > 10 µM.

**Q.** With Cc1cc2c(cc1Cl)S(=O)(=O)OC(c1ccc([N+](=O)[O-])cc1)=N2 as the compound, how does the TGI read?
**A.** The TGI was > 100 µM.
